Source: patent US5985894A, “N-substituted quinolines” (Hoechst Marion Roussel, priority 1991, dated 1999)

Assays:
[1] = system: angiotensin II on the isolated portal vein; assay: Antagonistic activity of angiotensin II on the isolated portal vein; format: cell-based, male Wistar rats; conditions: isolated rat portal vein, angiotensin II 3.10^-8 M, compound 15 minutes before; read-out: IC50 (50% inhibition of the response to angiotensin)
Method: The portal vein was removed from male Wistar rats weighing about 350 g (IFFA Credo France) after cervical dislocation, and put rapidly into a physiological solution (see below) at ambient temperature. A ring of about 1 mm was mounted in a bath with an isolated element containing 20 ml of the following physiological solution (composition in mM: NaCl 118.3-KCl 4.7-MgSO4 1.2-KH2 PO4 1.2-NaHCO3 25-glucose 11.1-CaCl2 2.5). The medium was maintained at 37° C. and oxygenated with a mixture of O2 95%, CO2 5%. The initial pressure imposed was 1 g and the rings were left at rest for 60 to 90 minutes. To avoid spontaneous contractions, verapamil was added to the incubation bath (1.10^-6 M). At the end of the rest period, angiotensin II (Ciba hypertensis) 3.10^-8 M were added to the incubation bath and left in contact with the preparation for one minute. This operation was repeated every 30 minutes with the tissue being washed 3 or 4 times between two stimulations with angiotensin. The compound to be studied was introduced into the bath 15 minutes before a new stimulation with angiotensin. As increasing concentrations of the molecule were used, an IC50 (concentration that produced a 50% inhibition of the response to angiotensin) was calculated, expressed in nanomoles.

[2] = system: angiotensin II; assay: Test for antagonistic activity of angiotensin II on a demedullated rat; format: in vivo, Male Sprague-Dawley rats; conditions: iv, 5 min, pressure effect of angiotensin II 0.75 micrograms/kg, compound injected (jugular vein) 5 minutes before, read-out: 50% inhibiting dose
Method: 3) Test for Antagonistic Activity of Angiotensin II on a Demedullated Rat
Male Sprague-Dawley rats weighing 250 to 350 g were anaesthetized by an intraperitoneal injection of sodium pentobarbital (60 mg/kg). The diastolic arterial pressure was recorded using a heparinated catheter (PE50) introduced into the left carotid of the animal, and connected to a pressure calculator (Gould, Pressure Processor) by a Gould pressure sensor. A catheter was introduced into the right jugular vein of the animal for the injection of the molecules to be studied. The animal was placed under assisted respiration and a bilateral section of the pneumogastric nerves was carried out. The rat was then demedullated. After a sufficient period of stabilization, the study of the antagonism of the compounds vis-a-vis angiotensin II (Ciba Hypertensin) was carried out in the following manner.
1--Three consecutive injections of angiotensin II (0.75 micrograms/kg) spaced out over 15 minutes allowed a reproducible and stable pressure response to be obtained.
2--While keeping a time period of 15 minutes for the administration of angiotensin II, the molecules to be studied were injected 5 minutes before angiotensin II.
The pressure effects of angiotensin II in the presence of the antagonist were expressed as a percentage of the pressure effects of angiotensin II administered on its own. The 50% inhibiting dose of the effect studied was determined. Each animal was considered as its own control and the results are in the following Table

[3] = target: T1, Angiotensin II Receptor (Rattus norvegicus, UniProt P25095); assay: Test on the Angiotensin II Receptor (displacement of 125I angiotensin II, rat liver membranes); format: binding; conditions: pH 7.4, 25° C., 150 minutes
T1 construct: A fresh membrane preparation obtained from the liver of a rat was used; from tissue; host or cells: rat liver, fresh membrane preparation
T1 sequence (P25095 1-359): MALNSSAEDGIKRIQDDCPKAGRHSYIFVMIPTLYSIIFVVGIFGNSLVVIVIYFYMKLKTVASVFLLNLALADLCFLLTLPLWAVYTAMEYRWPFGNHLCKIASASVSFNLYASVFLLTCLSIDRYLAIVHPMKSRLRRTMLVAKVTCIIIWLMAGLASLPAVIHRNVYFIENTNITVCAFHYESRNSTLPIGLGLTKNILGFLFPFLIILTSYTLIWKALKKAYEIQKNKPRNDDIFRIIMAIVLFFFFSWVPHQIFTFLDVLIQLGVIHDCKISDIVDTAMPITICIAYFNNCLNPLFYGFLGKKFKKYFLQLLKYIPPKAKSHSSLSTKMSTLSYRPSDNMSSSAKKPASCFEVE
Method: 1) Test on the Angiotensin II Receptor
A fresh membrane preparation obtained from the liver of a rat was used and the tissue was ground up in a polytron in a Tris 50 mM pH 7.4 buffer. After being ground up, the tissue was centrifuged 3 times at 30,000 g for 15 minutes with intermediate taking up of the deposits in the Tris pH 7.4 buffer. The last deposits were suspended in a pH 7.4 incubation buffer (Tris 20 mM, NaCl 135 mM, KCl 10 mM, glucose 5 mM, MgCl2 10 mM, phenyl methyl sulfonyl fluoride 0.3 mM, bacitracine 0.1 mM (0.2% bovine albumin serum). 2 ml aliquoted fractions were divided into hemolysis tubes and ^125 I angiotensin II (25,000 DPM/tube) and the product to be studied were added. The product has first tested at 3×10^-5 M in triplicate. When the test product displaced more than 50% of the radioactivity linked specifically to the receptor, it was tested again according to a range of 7 concentrations to determine the concentration that inhibited the radioactivity linked specifically to the receptor by 50%. In this way, the 50% inhibiting concentration was determined.
The non-specific bond was determined by the addition of the product of Example 94 of the European Patent No. 0,253,310 at 10^-5 M (in triplicate). The deposit was incubated at 25° C. for 150 minutes, put back in a water bath at 0° C. for 5 minutes, filtered under vacuum, rinsed with Tris pH 7.4 buffer and the radioactivity was counted in the presence of scintillating Triton. The results were expressed directly as a 50% inhibiting concentration (IC50), that is to say as a concentration of product studied, expressed in nM, necessary to displace 50% of the specific radioactivity fixed on the receptor studied.

[4] = Passive avoidance test (scopolamine amnesia); format: in vivo, Male mice (CD1 Charles River); conditions: s.c., 24 hours after treatment

| SMILES | IC50 [1] [nM] | IC50 [3] [nM] | ED50 [2] [mg/kg] | PERCENTAGE OF INCREASE IN THE LATENCY TIME RELATIVE TO THE CONTROLS ([4]; dose 10 μg/kg) [%] | PERCENTAGE OF INCREASE IN THE LATENCY TIME RELATIVE TO THE CONTROLS ([4]; dose 25 μg/kg) [%] | PERCENTAGE OF INCREASE IN THE LATENCY TIME RELATIVE TO THE CONTROLS ([4]; dose 100 μg/kg) [%] | PERCENTAGE OF INCREASE IN THE LATENCY TIME RELATIVE TO THE CONTROLS ([4]; dose 250 μg/kg) [%] | PERCENTAGE OF INCREASE IN THE LATENCY TIME RELATIVE TO THE CONTROLS ([4]; dose 1000 μg/kg) [%] | PERCENTAGE OF INCREASE IN THE LATENCY TIME RELATIVE TO THE CONTROLS ([4]; dose 1 μg/kg) [%] | PERCENTAGE OF INCREASE IN THE LATENCY TIME RELATIVE TO THE CONTROLS ([4]; dose 0.1 μg/kg) [%] | PERCENTAGE OF INCREASE IN THE LATENCY TIME RELATIVE TO THE CONTROLS ([4]; dose 0.25 μg/kg) [%] | PERCENTAGE OF INCREASE IN THE LATENCY TIME RELATIVE TO THE CONTROLS ([4]; dose 2.5 μg/kg) [%] |
| --- | --- | --- | --- | --- | --- | --- | --- | --- | --- | --- | --- | --- |
| CCCCc1cn(Cc2ccc(-c3ccccc3C(=O)O)cc2)c2c(c1=O)CCCC2 [Example 22, 4'-[(3-butyl-1,4,5,6,7,8-hexahydro-4-oxo-1-quinolinyl)-methyl](1,1'-biphenyl)-2-carboxylic acid] | – | 90 | 1 | 8 | 26 | 66 | 128 | 127 | – | – | – | – |
| CCCCc1cn(Cc2ccc(-c3ccccc3C(=O)O)cc2)c2c(C(=O)O)cccc2c1=O [Example 30] | – | 54 | 0.21 | 37 | 65 | 91 | 144 | 126 | 23 | – | – | – |
| CCCCc1cn(Cc2ccc(-c3ccccc3C(=O)O)cc2)c2cc(CCC(=O)O)ccc2c1=O [Example 38] | – | – | – | 118 | 132 | 131 | 101 | 158 | 57 | 1 | – | – |
| CCCCc1cn(Cc2ccc(-c3ccccc3C(=O)O)cc2)c2cc(CC(=O)O)ccc2c1=O [Example 50] | – | – | 0.61 | 190 | 225 | 149 | – | – | 84 | 20 | 31 | 93 |
| CCCCc1cn(Cc2ccccc2CC(=O)O)c2ccccc2c1=O [Example 56] | – | – | – | 24 | 49 | 98 | 105 | 122 | – | – | – | – |
| CCCCc1cn(Cc2ccc(-c3ccccc3C(=O)O)cc2)c2ccc(C)cc2c1=O [Example 58] | – | – | – | 112 | 110 | 129 | – | – | 29 | 3 | – | – |

Now from value to compound, other results behind:

| IC50 [1] [nM] | IC50 [3] [nM] | SMILES | ED50 [2] [mg/kg] | PERCENTAGE OF INCREASE IN THE LATENCY TIME RELATIVE TO THE CONTROLS ([4]; dose 10 μg/kg) [%] | PERCENTAGE OF INCREASE IN THE LATENCY TIME RELATIVE TO THE CONTROLS ([4]; dose 25 μg/kg) [%] | PERCENTAGE OF INCREASE IN THE LATENCY TIME RELATIVE TO THE CONTROLS ([4]; dose 100 μg/kg) [%] | PERCENTAGE OF INCREASE IN THE LATENCY TIME RELATIVE TO THE CONTROLS ([4]; dose 250 μg/kg) [%] | PERCENTAGE OF INCREASE IN THE LATENCY TIME RELATIVE TO THE CONTROLS ([4]; dose 1000 μg/kg) [%] | PERCENTAGE OF INCREASE IN THE LATENCY TIME RELATIVE TO THE CONTROLS ([4]; dose 1 μg/kg) [%] | PERCENTAGE OF INCREASE IN THE LATENCY TIME RELATIVE TO THE CONTROLS ([4]; dose 0.1 μg/kg) [%] | PERCENTAGE OF INCREASE IN THE LATENCY TIME RELATIVE TO THE CONTROLS ([4]; dose 0.25 μg/kg) [%] | PERCENTAGE OF INCREASE IN THE LATENCY TIME RELATIVE TO THE CONTROLS ([4]; dose 2.5 μg/kg) [%] |
| --- | --- | --- | --- | --- | --- | --- | --- | --- | --- | --- | --- | --- |
| 96.5 | 180 | CCCCc1cn(Cc2ccc(-c3ccccc3C(=O)O)cc2)c2ccccc2c1=O [Example 4, 4'-[(3-butyl-1,4-dihydro-4-oxo-1-quinolinyl)-methyl](1,1'-biphenyl)-2-carboxylic acid] | 7.55 | – | – | – | – | – | – | – | – | – |
| 66 | 400 | CCCCc1cn(Cc2ccc(-c3ccccc3C(=O)O)cc2)c2ccccc2c1=S [Example 6] | 6.65 | – | – | – | – | – | – | – | – | – |
| 31 | 92 | CCCCc1cn(Cc2ccc(-c3ccccc3C(=O)O)cc2)c2cc(C(=O)O)ccc2c1=O [Example 10, 3-butyl-1-[[2'-carboxy-(1,1'-biphenyl)-4-yl]-methyl]-1,4-dihydro-4-oxo-7-quinoline carboxylic acid] | 1.27 | – | – | – | – | – | – | – | – | – |
| 49 | – | CCCCc1cn(Cc2ccc(-c3ccccc3C(=O)O)cc2)c2cc(CO)ccc2c1=O [Example 12] | 3.76 | – | – | – | – | – | – | – | – | – |
| 31.7 | 79 | CCCCc1cn(Cc2ccc(-c3ccccc3C(=O)O)cc2)c2cc(C(=O)N3CCCC3)ccc2c1=O [Example 16] | 1.2 | – | – | – | – | – | – | – | – | – |
| – | 74 | CCCCc1cn(Cc2ccc(-c3ccccc3C(=O)O)cc2)c2c(Br)cccc2c1=O [Example 18, 4'-[(3-butyl-1,4-dihydro-8-bromo-4-oxo-1-quinolinyl)-methyl](1,1'-biphenyl)2-carboxylic acid] | 3.9 | – | – | – | – | – | – | – | – | – |
| – | 8.7 | CCCCc1cn(Cc2ccc(-c3ccccc3-c3nn[nH]n3)cc2)c2cc(C(=O)N3CCCC3)ccc2c1=O [Example 52] | 0.23 | – | – | – | – | – | – | – | – | – |
